Values joined by “and” are separate entries in the source; they are usually repeats but may differ in a detail not shown here. Equal entries are not always repeated.
What was measured:
Lysozyme = target: T1, Lysozyme (Homo sapiens, UniProt P61626); test: Lysozyme inhibition saliva screening (fluorescein-labeled Micrococcus lysodeikticus); format: biochemical
T1 sequence (P61626 19-148): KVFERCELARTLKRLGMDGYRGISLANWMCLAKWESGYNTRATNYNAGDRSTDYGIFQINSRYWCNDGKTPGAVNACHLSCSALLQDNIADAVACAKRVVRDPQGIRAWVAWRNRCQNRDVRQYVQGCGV
Excerpt: The assay measures lysozyme activity on Micrococcus lysodeikticus cell walls, which are labeled to such a degree that the fluorescence is quenched. Lysozyme activity can relieve this quenching; yielding increased fluorescence that is proportional to lysozyme activity.

α-amylase = target: T2, α-amylase (Homo sapiens, UniProt P0DUB6); test: α-Amylase inhibition saliva screening (2-chloro-p-nitrophenol-maltotriose substrate, absorbance 405 nm); format: biochemical; settings: 37° C.; for α-amylase assay reading (absorbance at 405 nm), single replicate: test compound prepared at 5,000 ppm
T2 sequence (P0DUB6 16-511): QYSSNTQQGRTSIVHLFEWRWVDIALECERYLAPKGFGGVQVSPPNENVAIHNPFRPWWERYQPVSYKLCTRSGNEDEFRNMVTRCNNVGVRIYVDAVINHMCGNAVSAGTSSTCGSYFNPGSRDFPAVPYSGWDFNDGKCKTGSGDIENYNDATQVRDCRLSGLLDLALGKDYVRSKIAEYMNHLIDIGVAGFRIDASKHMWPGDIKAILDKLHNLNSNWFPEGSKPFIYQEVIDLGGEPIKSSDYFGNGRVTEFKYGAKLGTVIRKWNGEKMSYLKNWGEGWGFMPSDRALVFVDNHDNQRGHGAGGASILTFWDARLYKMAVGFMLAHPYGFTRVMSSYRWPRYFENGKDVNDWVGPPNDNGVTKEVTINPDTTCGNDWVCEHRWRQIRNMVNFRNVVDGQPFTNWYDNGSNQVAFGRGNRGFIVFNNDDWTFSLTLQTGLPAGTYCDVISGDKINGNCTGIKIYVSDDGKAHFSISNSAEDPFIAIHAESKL
Excerpt: Enzymatic activity of α-amylase on the substrate yields 2-chloro-p-nitrophenol, which can be measured spectrophotometrically at 405 nm. The amount of α-amylase activity present in the experimental sample is directly proportional to the increase in absorbance at 405 nm.

CC(=O)O [CDI-047, Acetic acid]
inhibition of Lysozyme (Lysozyme; 100% saliva samples (data not shown)): inhibit Lysozyme
Lysozyme Inhibitor Activity (Lysozyme; dilute (3.5%) saliva, FIG. 12): Lysozyme Inhibitor Activity

Aluminum potassium sulfate dodecahydrate [CDI-42]
α-amylase assay reading, Ave (α-amylase; 0 min, 5,000 ppm): 0.92
α-amylase assay reading (absorbance at 405 nm), single replicate (α-amylase; 0 min): 0.80 and 0.90 and 0.84
α-amylase assay reading (absorbance at 405 nm), single replicate (α-amylase; 5 min): 1.80

Aluminum sulfate hydrate [CDI-34]
α-amylase assay reading, Ave (α-amylase; 0 min, 5,000 ppm): 0.40
α-amylase assay reading (absorbance at 405 nm), single replicate (α-amylase; 0 min, sulfate hydrate): 0.40 (2×) and 0.36 and 0.45
α-amylase assay reading, Ave (α-amylase; 5 min, 5,000 ppm): 0.50
α-amylase assay reading (absorbance at 405 nm), single replicate (α-amylase; 5 min, sulfate hydrate): 0.49 and 0.50 (2×) and 0.52
α-amylase assay reading, Ave (α-amylase; 15 min, 5,000 ppm): 0.56
α-amylase assay reading (absorbance at 405 nm), single replicate (α-amylase; 15 min, sulfate hydrate): 0.53 and 0.61 and 0.54 and 0.56

Reference: patent publication US20110195404A1, “SYSTEMS AND METHODS FOR DETERMINING CALCIUM LEVELS” (priority 2010, published 2011)
